Measurements taken from patent US4833155A, “3-(ω-(3,5,-di-t-butyl-4-hydroxyphenyl)-alkanoyl)pyrroles, and anti-inflammatory uses thereof” (Syntex (U.S.A.) Inc., priority 1986, dated 1989).
Values joined by “and” are separate entries in the source; they are usually repeats but may differ in a detail not shown here. Equal values may be shown once.

Legend:
[1] = test system: carrageenan-induced rat paw inflammation; experiment: Carrageenan-Induced Rat Paw Inflammation Assay "CI"; assay type: in vivo; conditions: oral
Method: Anti-inflammatory activity is determined by the Carrageenan-Induced Rat Paw Inflammation "CI" Assay, as is well accepted in the art. A modification of the assay described by Winter, et al., supra., is performed as follows:
Female albino rats (Sim: (SD)fbr) weighing 80-90 g receive the test materials orally in 1 ml aqueous solution at hour 0. One hour later (hr 1) 0.05 ml of a 1% solution (in aqueous 0.9% NaCl) of carrageenan is injected into the right hind paw to inflame the paw. The rats are sacrificed at hour 4, at which time both hind paws are removed and individually weighed. The percent increase in the weight of the inflamed paw over that of the opposite non-inflamed paw is calculated, and the results are reported according to the formula: [formula]

[2] = test system: arachidonic acid-induced mouse ear edema; experiment: Arachidonic Acid-Induced Mouse Ear Edema Assay "AAI"; assay type: in vivo; conditions: topical
Method: Topical anti-inflammatory activity is determined by the Arachidonic Acid-Induced Mouse Ear Edema "AAI" Assay, as is well accepted in the art. A modification of the assay described by Young, et al., supra., is performed as follows:
The test materials are prepared as solutions in acetone and applied to the right ears of mice, in groups of eight (8), at hour 0. At hour 1, 2 mg of arachidonic acid in acetone solution is applied to the right ears of the mice to induce an inflammatory response. The left ears of these animals serves as negative controls. At hour 2 the mice are sacrificed; their ears are removed and 8 mm diameter full thickness plugs are cut from the tip of each ear. The plugs are weighed and the mean right and left plug weights are calculated for each group. The results are expressed as percent inhibition of ear plug weight increase relative to a positive control group receiving only acetone at hour 0.

[3] = test system: lipoxygenase in human polymorphonuclear leukocytes; experiment: Human Polymorphonuclear Leukocyte Assay "HPMN" (lipoxygenase inhibition); assay type: cell-based; conditions: dose 36.0 μg
Method: Lipoxygenase inhibition activity is determined in vitro by the Human Polymorphonuclear Leukocyte ("HPMN") Assay, as is well accepted in the art. A modification of the assay described by Radmark, et al., supra., is performed as follows:
1. Preparation of the cells: The HPMNs are prepared from 200-300 ml of heparinized blood of healthy donors not receiving any medication for at least 7 days, using Ficol-Hypaque gradients. In general, HPMNs are greater than 90% pure and their viability is assessed by dye-exclusion to be better than 95%. The cells are suspended in phosphate buffered saline containing 1.0 mM CaCl2 (PH 7.4) and 0.1% ovalbumin, and used within 30 minutes.
2. Lipoxygenase Assay: Incubations are carried out at 37° C. for 5 minutes in a total volume of 0.2 ml arachidonic acid 1-C^14 (1×10^-4 M unless otherwise indicated, and approximately 300,000 cpm) is added to a suspension of cells (ca 5×10^6) to initiate the reaction. […]
1.6 Ml of deionized water is added, vortexed, and centrifuged. […] The eluates are collected in scintillation vials and 1.0 ml aliquot from each of the two fractions are counted for radioactivity in a Packard liquid scintillation counter. From the radioactivity data thus obtained percent yields of total lipoxygenase products in blanks, controls and drug-containing tubes are calculated as well as percent inhibition by the test compounds.

[4] = test system: phenylquinone-induced writhing; experiment: Phenylquinone-Induced Mouse Writhing Assay "PI" (cyclooxygenase-inhibition activity); assay type: in vivo
Method: Cyclooxygenase-inhibition activity is determined by the Phenylquinone-Induced Mouse Writhing "PI" Assay, as is well accepted in the art. A modification of the assay described by Hendershot, et al., supra., is performed as follows:
Phenylquinone solution is prepared as follows: 4 mg of phenylquinone is dissolved in 0.5 ml of absolute ethanol, after which 19.5 ml of warmed distilled water is added. When properly prepared, all of the phenylquinone solution remains in solution. The solution is used soon after preparation.
The test materials are administered in 0.2 ml of an aqueous vehicle at hour 0 to groups of eight male Swiss-Webster (Simonsen) mice weighing about 18-20 g. At either twenty (20 ) minutes or one hundred twenty (120) minutes later, 0.25 ml of a 0.02% solution of phenylquinone is injected into each animal, to induce writhing. The animals are then observed for the next ten (10) minutes for writhing responses, and the number of writhes per animal is recorded. The mean number of writhes is calculated for each treatment group and the results are expressed as percent inhibition of writhing responses relative to a control group receiving vehicle alone.

[5] = Isomura et al., Chem. Pharm. Bull. 32(1): 152-165 (1984); cited from earlier work
[6] = test system: adjuvant-induced arthritis (heat-killed Mycobacterium butyricum), hind paw weight increase; experiment: Adjuvant-Induced Arthritis Assay "AI"; assay type: in vivo; conditions: rat, oral, day 18
Method: Anti-inflammatory activity is determined by the Adjuvant-Induced Arthritis ("AI") Assay, as is well accepted in the art. A modification of the assay described by Pearson, et al., supra., is performed as follows: Female Hla:(SD) BR rats weighing 160-180 g are randomly distributed to treatment groups of 12 animals, and given food and water ad libitum. Test materials are prepared fresh weekly as suspensions in carboxymethyl cellulose. The test animals are orally dosed with the suspensions in volumes of 1 ml twice per day Monday through Friday, and with 2 ml once per day on Saturdays and Sundays. […] At time 0, rats are injected intradermally in the proximal quarter of the tail with 0.1 ml of a mineral oil suspension of heat-killed Mycobacterium butyricum (Difco) at a concentration of 10 mg/ml. On day 18 the intensity of swelling in the four paws and tail is estimated visually and scored (0-4 for paws, 0-3 for tail) such that the total maximum score, indicating intense swelling of all four paws and tail, is 19. The animals are then sacrificed; the hind paws of each animal are removed and weighed. The percent inhibition is calculated by comparing the weight increase of the hind paws of the test animals versus the control animals.

[7] = phenylquinone 20 min after dose, 5.0 mg/kg
[8] = phenylquinone 20 min after dose, 15.0 mg/kg
[9] = phenylquinone 120 min after dose, 15.0 mg/kg

CC(C)(C)c1cc(C(=O)c2ccc[nH]2)cc(C(C)(C)C)c1O [B, 2-(3,5-di-t-butyl-4-hydroxybenzoyl)pyrrole, reference compound]
Inhibition (CI) ([1]; dose 100.0 mg/kg): 30%
Inhibition (AAI), ear plug weight increase ([2]; dose 2.0 mg/ear): 22%
Inhibition (HPMN), total lipoxygenase products [3]: 50%
Inhibition (PI), writhing responses [4, 7]: 26%
Inhibition (PI), writhing responses [4, 8]: 40% and 52% and 65%
Inhibition (PI), writhing responses ([4]; phenylquinone 20 min after dose, 50.0 mg/kg): 56% and 38%
Inhibition (PI), writhing responses [4, 9]: 49%

Cc1[nH]ccc1-c1cc(C(C)(C)C)c(O)c(C(C)(C)C)c1 [Formula VIII]
anti-inflammatory activity as reported [5]: inactive

CC(C)(C)c1cc(C(=O)c2cc[nH]c2)cc(C(C)(C)C)c1O [A, 3-(3,5-di-t-butyl-4-hydroxybenzoyl)pyrrole]
Inhibition (CI) ([1]; dose 1.0 mg/kg): 24%
Inhibition (CI) ([1]; dose 10.0 mg/kg): 44%
inhibition of hind paw weight increase ([6]; daily dose 0.4 mg/kg): 54%
inhibition of hind paw weight increase ([6]; daily dose 2.0 mg/kg): 70%
Inhibition (AAI), ear plug weight increase ([2]; dose 0.5 mg/ear): 49%
Inhibition (AAI), ear plug weight increase ([2]; dose 1.0 mg/ear): 62%
Inhibition (AAI), ear plug weight increase ([2]; dose 2.0 mg/ear): 67% and 69%
Inhibition (PI), writhing responses ([4]; phenylquinone 20 min after dose, 0.1 mg/kg): 15%
Inhibition (PI), writhing responses ([4]; phenylquinone 20 min after dose, 1.0 mg/kg): 61%
Inhibition (PI), writhing responses ([4]; phenylquinone 20 min after dose, 1.5 mg/kg): 100%
Inhibition (PI), writhing responses [4, 7]: 99%
Inhibition (PI), writhing responses [4, 8]: 97% and 96%
Inhibition (PI), writhing responses [4, 9]: 100%
